Source: EP4818176A1, “TETRACYCLIC DERIVATIVE INHIBITOR, AND PREPARATION METHOD AND USE THEREFOR” (Shanghai Hansoh Biomedical Co., Ltd., priority 2023, dated 2025)
Where two headings read alike, the source gives them in different places.

How the values were obtained:
[1] = Pharmacokinetics in rats (plasma) after oral administration; assay type: in vivo; conditions: SD rats, p.o. 5 mg/kg; for MRT inf: read-out: MRT0-∞
Description: Test Example 4: Determination of the pharmacokinetics of the compounds of the present invention in rats (plasma) after oral administration.
1 Study objective: SD rats were used as test animals to study the pharmacokinetic behaviour of the following example compounds in rats (plasma) after oral administration at a dose of 5 mg/kg. 2 Test scheme • 2.1 Test drugs: Vehicle formula: 0.5% CMC-Na (1% Tween 80); the examples of the present invention, made in house. • 2.2 Test animals: 3 SD rats per group, male, purchased from Shanghai Bikai Keyi Biotechnology Co., Ltd., with animal license number (SCXK (Shanghai) 2018-0006, No.20180006037467). • 2.3 Administration: 3 SD rats per group, male, were fasted overnight and then respectively administered PO at a dose of 5 mg/kg and a volume of 10 mL/kg. • 2.4 Sample collection: 0.2 mL of blood was collected from the jugular vein of rats before administration and at 0, 0.25, 0.5, 1, 2, 4, 6, 8 and 24 h after administration, and placed in EDTA-K2test tubes, and the test tubes were centrifuged at 6,000 rpm at 4°C for 6 min to separate the plasma, which was stored at -80°C. The animals were fed 4 h after administration. • 2.5 Sample treatment • 1) 160 uL of acetonitrile was added to 40 uL of plasma sample for precipitation, and after mixing, the mixture was centrifuged at 3,500 × g for 5-20 minutes. • 2) 100 uL of the treated supernatant solution was taken for LC/MS/MS analysis to determine the concentration of the test compounds. • 2.6 Liquid phase analysis • Liquid phase conditions: Shimadzu LC-20AD pump;mass spectrometry conditions: AB Sciex API 4000 mass spectrometer • Chromatographic column: Phenomenex Gemiu 5 um C18 50 × 4.6 mm • Mobile phase: solution A: 0.1% formic acid in water, solution B: methanol • Flow rate: 1.0 mL/min, elution time: 0-4.0 min, with eluents as follows:
Experimental results and analysis: The main pharmacokinetic parameters were calculated using WinNonlin 8.2.

[2] = target: T1, PRMT5/MEP50-MTA protein complex (Homo sapiens, UniProt O14744); assay: Thermal shift assay: thermal stability (melting temperature) of PRMT5/MEP50-MTA protein complex; assay type: binding; conditions: final compound concentration 8 µM; 2 µM PRMT5/MEP50, 2 µM MTA; Tm minus Tm of DMSO vehicle control
T1 construct: purchased Viva Biotech
Description: Test Example 1: Determination of the ability of the compounds of the present invention to improve the thermal stability (melting temperature) of the PRMT5/MEP50-MTA protein complex.
1 Experimental objective: The objective of this test example is to determine the ability of the compound to improve the thermal stability of the PRMT5/MEP50-MTA protein complex, resulting in an increase in the protein melting temperature. 2 Experimental instruments: Quantitative PCR instrument (Quantstudio6 Flex) was purchased from Life Technologies; pipettes were purchased from Eppendorf or Rainin. 3 Experimental reagents and consumables: PRMT5/MEP50 protein was prepared by Viva Biotech; HEPES was purchased from Thermo Fisher Scientific (Cat. No. 15630080); DTT was purchased from Sigma (Cat. No. 43816-10ml); sodium chloride was purchased from Invitrogen (Cat. No. AM9760G); Protein Thermal Shift™ Dye Kit was purchased from Thermo Fisher Scientific (Cat. No. 4461146); methylthioadenosine (MTA) was purchased from Sigma (Cat. No. D5011). 4 Experimental method: In this experiment, the thermal shift method was used to measure the change in the melting temperature (Tm) of the PRMT5/MEP50-MTA protein complex before and after compound binding, thereby characterising the ability of the compound to improve the thermal stability of the PRMT5/MEP50-MTA protein complex. A solution containing 50 mM HEPES, 10 mM DTT, 2 µM MTA, SYPRO Orange and 250 mM NaCl was prepared as the experimental buffer. Human PRMT5/MEP50 protein was added to a final concentration of 2 µM, and the mixture was incubated at room temperature for 30 minutes. The above reaction mixture was aliquoted into 8-strip PCR tubes at 19.5 µL per tube. Then 0.5 µL of test compound or DMSO was added to each tube, providing a total reaction volume of 20 µL and a final compound concentration of 8 µM. 2.5% DMSO was set as the vehicle control. After incubation at room temperature for 10 minutes, the PCR tubes were placed in a PCR instrument, and the melt curve function was selected to measure the melting temperature of the PRMT5/MEP50-MTA protein complex in different treatment groups (heated from 25°C to 95°C, 0.03°C/s). 5 Experimental data processing method: The experimental data files from the PCR instrument were imported into the thermal shift software to obtain the melting temperature (Tm) for each treatment group.

HCT116 wild-type cells = assay: Cell proliferation inhibition (CellTiter-Glo), HCT116 wild-type cells; assay type: cell-based
Description: (§1) Test Example 2: Determination of the inhibitory effect of the compounds of the present invention on the proliferation activity of HCT116 and MTAP Knockout HCT116 cells.
(§2) 1 Experimental objective: The objective of this test example is to determine the inhibitory effect of the compound on the proliferation activity of HCT116 wild-type and HCT116 MTAP knockout cells. 2 Experimental instruments: Centrifuge (Eppendorf 5810R); microplate reader (BioTek Synergy H1 or PerkinElmer Envision); pipette (Eppendorf or Rainin). 3 Experimental reagents: HCT116 and MTAP Knockout HCT116 cells were purchased from Nanjing Cobioer; Cell Titer-Glo was purchased from Promega (Cat. No. G7573); McCoy'5A was purchased from Gibco (Cat. No. 12330031); FBS was purchased from Gibco (Cat. No. 10091148); PBS was purchased from Gibco (Cat. No. 10010023); trypsin was purchased from Gibco (Cat. No. 25200056); cell culture plates were purchased from Corning (Cat. No. 3610). 4 Experimental method: HCT116 and MTAP Knockout HCT116 cells were cultured in McCoy'5A medium containing 10% FBS until an appropriate cell density was reached. The cells were then collected and adjusted to a suitable concentration using complete medium. The cell suspension was seeded into a 96-well plate at 90 µL per well and allowed to adhere overnight in a 37°C, 5% CO2 incubator. Compound solutions of various concentrations were prepared using DMSO and culture medium, with a vehicle control set. The compound solutions were added to the 96-well plate at 10 µL per well, and the plate was incubated in a 37°C, 5% CO2 incubator for an additional 72-240 hours. After incubation, CellTiter-Glo solution was added, and the mixture was mixed uniformly by shaking, followed by incubation in the dark for 10 to 30 minutes. Luminescence was measured using a Synergy H1 or Envision microplate reader. 5 Experimental data processing method: The inhibition rate was calculated using the luminescence signal values, and the concentrations along with the inhibition rates were subjected to non-linear regression curve fitting using Graphpad Prism software to obtain the IC50 values.

[3] = system: MTAP Knockout HCT116 cells; assay: Cell proliferation inhibition (CellTiter-Glo), HCT116 MTAP knockout cells; assay type: cell-based; conditions: for Selectivity: HCT116 IC50 versus MTAP Knockout HCT116 IC50
Description: as §1, §2

[4] = HCT116 wild-type cells, proliferation inhibition, Cell Titer-Glo, read-out: HCT116 IC50
[5] = MTAP Knockout HCT116 cells, proliferation inhibition, Cell Titer-Glo, read-out: MTAP Knockout HCT116 IC50
[6] = Homo sapiens, HCT-116, HCT116 wild-type cells, proliferation inhibition, Cell Titer-Glo, read-out: HCT116 IC50
[7] = Homo sapiens, HCT-116, MTAP Knockout HCT116 cells, proliferation inhibition, Cell Titer-Glo, read-out: MTAP Knockout HCT116 IC50
[8] = rat, in vivo, po, read-out: Cmax
[9] = rat, in vivo, po, read-out: tmax
[10] = Homo sapiens, HCT-116, read-out: HCT116 IC50
[11] = Homo sapiens, HCT-116, read-out: MTAP Knockout HCT116 IC50

T1 sequence (O14744 whole entry): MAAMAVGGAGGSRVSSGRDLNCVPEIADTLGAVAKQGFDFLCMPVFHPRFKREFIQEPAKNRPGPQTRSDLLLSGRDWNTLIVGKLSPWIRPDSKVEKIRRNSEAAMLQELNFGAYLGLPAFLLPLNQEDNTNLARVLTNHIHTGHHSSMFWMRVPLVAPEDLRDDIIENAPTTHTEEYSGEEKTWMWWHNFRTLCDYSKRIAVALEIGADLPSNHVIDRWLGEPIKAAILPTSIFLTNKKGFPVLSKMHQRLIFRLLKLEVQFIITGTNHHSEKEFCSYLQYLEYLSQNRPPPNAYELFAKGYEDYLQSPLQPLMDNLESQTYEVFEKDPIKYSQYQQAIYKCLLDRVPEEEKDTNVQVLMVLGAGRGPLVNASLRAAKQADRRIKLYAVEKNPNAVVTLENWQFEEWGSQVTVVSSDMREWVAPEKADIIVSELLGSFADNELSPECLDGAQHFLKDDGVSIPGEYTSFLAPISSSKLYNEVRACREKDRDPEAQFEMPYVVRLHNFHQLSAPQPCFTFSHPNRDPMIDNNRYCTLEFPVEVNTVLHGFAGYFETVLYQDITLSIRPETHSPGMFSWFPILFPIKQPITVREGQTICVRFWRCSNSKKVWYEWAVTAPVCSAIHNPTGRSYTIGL
T1 sequence (Q9BQA1 whole entry partner): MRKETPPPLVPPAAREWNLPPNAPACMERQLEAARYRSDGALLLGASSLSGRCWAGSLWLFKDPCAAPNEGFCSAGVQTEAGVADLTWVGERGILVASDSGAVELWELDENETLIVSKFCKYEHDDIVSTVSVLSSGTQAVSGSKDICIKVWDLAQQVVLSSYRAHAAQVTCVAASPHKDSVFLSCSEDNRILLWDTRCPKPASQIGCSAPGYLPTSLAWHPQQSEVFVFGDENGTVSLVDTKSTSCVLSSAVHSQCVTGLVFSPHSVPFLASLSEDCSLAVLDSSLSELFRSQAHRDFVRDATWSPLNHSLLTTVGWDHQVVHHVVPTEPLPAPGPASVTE

For “(Z)-4-Amino-12-((5-(trifluoromethyl)pyridin-2-yl)methyl)-9,10,11,12-tetrahydro-13H-azonino[4,3-g]imidazo[1,5-a]quinoxalin-13-one [Example 171]”, the “AUC 0-∞” value [1] was 1058 ng·h/mL, the Cmax [1] was 283 ng/mL and the “MRT0-∞” value [1] was 2.9 h. For the same compound, the Tmax [1] was 1.0 h, the t1/2 [1] was 1.6 h and the “ΔTm (°C)” value [2] was 12.03 °C. It also gave an IC50 (HCT116 wild-type cells; [4]) of 0.236 µM, a Selectivity [3] of 90 and an IC50 [3, 5] of 0.0026 µM.

For `Nc1nc2cc3c(cc2c2c1COC2)C(=O)N(C1COCc2nc(C(F)(F)F)ccc21)CCC/C=C\3` (single isomer, unassigned) [Example 165-P1], the AUC(0-inf) ([1]; male, rat, po) was 999 ng·h/mL, the half-life ([1]; male, rat, po) was 1.5 h and the Cmax ([1]; male, rat, po, read-out: Cmax) was 321 ng/mL. For the same compound, the MRT inf ([1]; male, rat, po) was 2.5 h, the Tmax ([1]; male, rat, po, read-out: tmax) was 1 h and the ΔTm at 8 µM [2] was 11.9 °C. It also gave an IC50 (HCT116 wild-type cells; [6]) of 0.682 µM, a Selectivity [3] of 132 and an IC50 [3, 7] of 0.0052 µM.

For `Nc1nc2cc3c(cc2n2cncc12)C(=O)N(Cc1ccc(C(F)(F)F)cn1)CC/C=C\3` [Example 416, (Z)-4-Amino-11-(5-(trifluoromethyl)pyridin-2-yl)methyl-10,11-dihydroazocino[4,3-g]imidazo[1,5-a]quinoxalin-12(9H)-one], the AUC(0-inf) ([1]; male, rat, po) was 1520 ng·h/mL, the half-life ([1]; male, rat, po) was 1.3 h and the Cmax ([1]; male, rat, po, read-out: Cmax) was 395 ng/mL. It also gave an MRT inf ([1]; male, rat, po) of 2.9 h, a Tmax ([1]; male, rat, po, read-out: tmax) of 2 h and a ΔTm at 8 µM [2] of 12.4 °C. It also gave an IC50 (HCT116 wild-type cells; [6]) of 0.222 µM, a Selectivity [3] of 93 and an IC50 [3, 7] of 0.0024 µM.

`Nc1nc2cc3c(cc2n2cncc12)C(=O)N(Cc1ccc(S(F)(F)(F)(F)F)cn1)CCCOC3` [Example 414, 4-Amino-12-((5-(pentafluoro-λ^6-sulphanyl)pyridin-2-yl)methyl)-9,10,11,12-tetrahydroimidazo[1,5-a][1,5]oxazonino[8,7-g]quinoxalin-13(7H)-one] gave an AUC(0-inf) ([1]; male, rat, po) of 949 ng·h/mL, a half-life ([1]; male, rat, po) of 1.3 h and a Cmax ([1]; male, rat, po, read-out: Cmax) of 208 ng/mL. It also gave an MRT inf ([1]; male, rat, po) of 3.3 h, a Tmax ([1]; male, rat, po, read-out: tmax) of 2 h and a ΔTm at 8 µM [2] of 12.3 °C. It also gave an IC50 (HCT116 wild-type cells; [6]) of 0.229 µM, a Selectivity [3] of 47 and an IC50 [3, 7] of 0.0049 µM.

With `C[C@H]1OCc2c1c(N)nc1cc3c(cc21)C(=O)N(Cc1ccc(S(F)(F)(F)(F)F)cn1)CCCOC3` [Example 437-P1, (R)-4-Amino-3-methyl-12-((5-(pentafluorosulphanyl)pyridin-2-yl)methyl)-3,7,9,10,11,12-hexahydrofuro[3,4-c][1,5]oxazolo[7,8-g]quinolin-13(1H)-one] the AUC(0-inf) ([1]; rat, in vivo, po) was 2050 ng·h/mL, the half-life ([1]; rat, in vivo, po) was 2.4 h and the Cmax [1, 8] was 318 ng/mL. It also gave an MRT inf ([1]; rat, in vivo, po) of 3.7 h, a Tmax [1, 9] of 2 h and a ΔTm at 8 µM [2] of 12.6 °C. For the same compound, the IC50 (HCT116 wild-type cells; [10]) was 0.187 µM, the Selectivity [3] was 85 and the IC50 [3, 11] was 0.0022 µM.

`Nc1nc2cc3c(cc2c2c1COC2)C(=O)N(Cc1ccc(S(F)(F)(F)(F)F)cn1)CCCOC3` [Example 434, 4-Amino-3-methyl-12-((5-(pentafluorosulphanyl)pyridin-2-yl)methyl)-3,7,9,10,11,12-hexahydrofuro[3,4-c][1,5]oxazolo[7,8-g]quinolin-13(1H)-one] showed an AUC(0-inf) ([1]; rat, po) of 2330 ng·h/mL, a half-life ([1]; rat, po) of 3.1 h and a Cmax ([1]; rat, po, read-out: Cmax) of 273 ng/mL. For the same compound, the MRT inf ([1]; rat, po) was 5.3 h, the Tmax ([1]; rat, po, read-out: tmax) was 2 h and the ΔTm at 8 µM [2] was 12.2 °C. It also gave an IC50 (HCT116 wild-type cells; [10]) of 0.578 µM, a Selectivity [3] of 87 and an IC50 [3, 11] of 0.0067 µM.

`NC1=NC2C=C3CCCCCN(Cc4ccc(C(F)(F)F)cn4)C(=O)C3=CC2n2cncc21` (stereo not drawn) [Example 77, 4-Amino-12-((5-(trifluoromethyl)pyridin-2-yl)methyl)-5a,7,8,9,10,11,12,14a-octahydro-13H-azonino[4,3-g]imidazo[1,5-a]quinoxalin-13-one] showed a ΔTm at 8 µM [2] of 11 °C, an IC50 (HCT116 wild-type cells; [6]) of 0.236 µM and a Selectivity [3] of 20. The IC50 [3, 7] was 0.012 µM.

Work on `Nc1nc2cc3c(cc2c2c1COC2)C(=O)N(Cc1ccc(C(F)(F)F)cn1)CC/C=C\3` [Example 638, (Z)-4-Amino-11-((5-(trifluoromethyl)pyridin-2-yl)methyl)-3,9,10,11-tetrahydronaphthyrido[3,4-g]furo[3,4-e]quinoxalin-12(1H)-one] yielded an AUC(0-inf) ([1]; rat, po) of 929 ng·h/mL, a half-life ([1]; rat, po) of 1.8 h and a Cmax ([1]; rat, po, read-out: Cmax) of 241 ng/mL. It also gave an MRT inf ([1]; rat, po) of 3.5 h, a Tmax ([1]; rat, po, read-out: tmax) of 1.7 h and a ΔTm at 8 µM [2] of 12.3 °C. It also gave an IC50 (HCT116 wild-type cells; [10]) of 0.318 µM, a Selectivity [3] of 71 and an IC50 [3, 11] of 0.0045 µM.

For `Nc1nc2cc3c(cc2n2cncc12)C(=O)N(C1COc2cc(C(F)(F)F)ccc21)CCC/C=C\3` (racemic) [Example 164, (Z)-4-Amino-12-(6-(trifluoromethyl)-2,3-dihydrobenzofuran-3-yl)-9,10,11,12-tetrahydro-13H-azo[4,3-g]imidazo[1,5-a]quinoxalin-13-one], the AUC(0-inf) ([1]; rat, in vivo, po) was 2520 ng·h/mL, the half-life ([1]; rat, in vivo, po) was 4.7 h and the Cmax [1, 8] was 183 ng/mL. It also gave an MRT inf ([1]; rat, in vivo, po) of 7.6 h, a Tmax [1, 9] of 4 h and a ΔTm at 8 µM [2] of 11.2 °C. It also gave an IC50 (HCT116 wild-type cells; [6]) of 6.63 µM, a Selectivity [3] of 406 and an IC50 [3, 7] of 0.016 µM.

In the case of `Cn1ncc2c(N)nc3cc4c(cc3c21)C(=O)N(C1COc2cc(C(F)(F)F)ccc21)CCCOC4` (stereo not drawn) [Example 270, 4-Amino-1-methyl-12-(6-(trifluoromethyl)-2,3-dihydrobenzofuran-3-yl)-1,7,9,10,11,12-hexahydro-13H-[1,5]oxazonino[7,8-g]pyrazolo[4,3-c]quinolin-13-one], the ΔTm at 8 µM [2] is reported as 10.8 °C, the IC50 (HCT116 wild-type cells; [10]) is reported as 2.45 µM and the Selectivity [3] is reported as 147. The IC50 [3, 11] was 0.017 µM.

For “(R, Z)-4-amino-12-(2-(trifluoromethyl)-5,8-dihydro-6H-pyrano[3,4-b]pyridin-5-yl)-9,10,11,12-tetrahydro-13H-aza[4,3-g]imidazo[1,5-a]quinoxalin-13-one [Example 158-P1]”, the “ΔTm (°C)” value [2] was 12.03 °C, the IC50 (HCT116 wild-type cells; [4]) was 0.708 µM and the Selectivity [3] was 81. It also gave an IC50 [3, 5] of 0.0087 µM.
